Laboratory results from patent US10168342B2, “Lipid probes and uses thereof” (THE SCRIPPS RESEARCH INSTITUTE, priority 2015, dated 2019).

Columns and labels:
human NUCB1 [1] = target: T1, human NUCB1 (Homo sapiens, UniProt Q02818); assay: FluoPol assay / high throughput screen with Fl-AEA and recombinant NUCB1; assay type: binding; settings: for suppression of the NUCB1-FluoPol signal (blockade of Fl-AEA binding): competitor lipids, recombinant NUCB1
T1 construct: made in house; host or cells: Escherichia coli BL21(DE3)
T1 sequence (Q02818 27-461): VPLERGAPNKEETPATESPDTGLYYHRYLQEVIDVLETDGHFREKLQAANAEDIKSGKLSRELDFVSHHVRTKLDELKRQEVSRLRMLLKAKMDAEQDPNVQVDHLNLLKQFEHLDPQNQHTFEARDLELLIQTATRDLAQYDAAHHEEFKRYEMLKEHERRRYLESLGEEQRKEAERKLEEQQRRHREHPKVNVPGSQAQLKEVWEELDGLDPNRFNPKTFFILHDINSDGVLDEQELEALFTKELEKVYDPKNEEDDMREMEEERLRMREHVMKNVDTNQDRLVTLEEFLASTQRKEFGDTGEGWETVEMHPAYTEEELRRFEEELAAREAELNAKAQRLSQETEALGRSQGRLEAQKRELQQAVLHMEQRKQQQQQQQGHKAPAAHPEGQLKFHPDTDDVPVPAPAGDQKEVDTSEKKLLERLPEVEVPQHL
Experimental: FluoPol conditions were optimized by screening various concentrations of Fl-AEA, hNUCB1, CaCl2 and Pluronic F-127 against positive and negative controls. Arachidonic acid (20 μM final) was used as a positive control, and DMSO as a negative. Additionally, protein-free controls were used to normalize for background signal. […] The Z′-factor for these conditions was determined to be 0.54, indicating a high signal to noise assay.
A 10 μL solution of hNUCB1 (1 μM), Fl-AEA (0.5 μM), CaCl2 (20 μM), and Pluronic F-127 (0.01%) was added to a Greiner 384-well plate. Additionally, in some wells protein was omitted to serve as a blank control for background signal. To the protein containing wells 16,000 compounds (50 nL in DMSO, 2 mM) from the Maybridge Hitfinder library were added by a pin-tool robot. Additionally, on each plate to some wells arachidonic acid (20 μM final) or DMSO were added as positive and negative controls to allow normalization between plates. The plates were allowed to incubate for 5 minutes at room temperature, then fluorescence polarization was measured by measuring fluorescence intensity through polarized 595 nm filters. Hits were selected based on maximal probe competition.

human NUCB1 [2] = target: T1, human NUCB1; assay: In vitro gel-based competition of AEA-DA probe labeling of NUCB1; assay type: binding; settings: AEA-DA 5.0 μM, lipids 20×, NUCB1-transfected HEK293T lysates
Experimental: Human NUCB1 lacking the N-terminal signal sequence (M1-A26) was subcloned into pET45b(+) vector (Novagen) using the following PCR primers for amplification: 5′-CATCAATTGTGTGCCCCTGGAGAGAG-3′ and 5′-AGCAAGCTTTACAGATGTTGGGGCACC-3′. Following transformation of Escherichia coli strain BL21(DE3) with hNucb1ΔSSpET45b(+), a single colony was isolated and grown in Terrific Broth containing carbenicillin (100 mg/L) at 37° C. to an OD600 of 0.8. Protein expression was induced with IPTG (1.0 mM) and the cells were incubated at 20° C. with shaking overnight. After centrifugation, cells pellets were resuspended in cold buffer containing HEPES (0.05M), NaCl (0.03 M), imidazole (5.0 mM), DNase (0.1 mg/mL), MgCl2 (1.0 mM), CaCl2 (1.0 mM) and EDTA-free Complete Protease Inhibitor Cocktail and lysed using a microfluidizer. […] The suspension was applied to a column and the retained resin was washed with HEPES buffer containing 500 mM NaCl until the eluent was clean of DNA and protein (A280/260) and then with HEPES buffer containing 10 mM imidazole (5 mL/1 mL resin). Protein was then slowly eluted with HEPES buffer containing 50 mM imidazole in 1.0 mL fractions and the combined fractions containing hNUCB1 were passed through a Sephadex G-25M column to remove imidazole and concentrated in an Amicon centrifugal filter device (Millipore). These conditions produced hNUCB1 at approximately 10 mg/L of culture; however, several lower molecular weight fragments were also present in this preparation. hNUCB1 was further purified by size exclusion chromatography.
(§1) Cell lysates (1.0 mg/mL), the indicated lipid probe (2.5 or 5 μM) and, for recombinant NUCB1 competition experiments, purified hNUCB1 (250 nM) and CaCl2 (100 μM) were mixed on ice. DMSO or competitors were then added to the proteome mixture (50 μM) in 96-well plates and each sample was incubated for 15 min at 37° C. The samples were then irradiated with UV light and subjected to previously described click chemistry conditions. As before, each reaction was quenched with 4×SDS loading buffer (17 μL), and proteins were resolved using SDS-PAGE (10% acrylamide gel) and analyzed by in-gel fluorescent scanning on a Hitachi FMBIO-II flatbed fluorescence scanner. NUCB1 competition was quantitatively assessed by measuring the fluorescent intensity of the corresponding gel band using ImageJ 1.48v and normalizing this value by a non-competed gel band to control for loading differences.
(§2) Metabolite data are shown as mean±SEM (n=3-5/group). Differences between two groups were determined using Student's t test (unpaired, two-tailed) and significance was denoted for P values<0.05.

NENF = target: T2, NENF (Homo sapiens, UniProt Q9UMX5); assay: In vitro gel-based competition of AEA-DA probe labeling of NENF; assay type: binding; settings: NENF-transfected HEK293T lysates; for competition of AEA-DA probe labeling of recombinant NENF: competitors 1-100 μM
T2 construct: Full-length cDNAs encoding for the each protein of interest were subcloned into pcDNA3.1 myc-His A; Myc (myc-His of pcDNA3.1 myc-His A); expressed in transfected cells; host or cells: HEK293T (lysates)
T2 sequence (Q9UMX5 32-172, species assumed): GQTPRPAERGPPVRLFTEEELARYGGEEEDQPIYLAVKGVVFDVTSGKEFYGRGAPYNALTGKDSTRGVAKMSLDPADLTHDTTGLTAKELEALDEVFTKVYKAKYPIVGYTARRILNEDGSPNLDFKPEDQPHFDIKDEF
Experimental: (§3) Full-length cDNAs encoding for the each protein of interest were subcloned into pcDNA3.1 myc-His A (Invitrogen) or used directly for transfections if available in a eukaryotic expression vector. HEK293T cells were grown to ˜70% confluence under standard growth conditions before adding the appropriate cDNA [control cells (“mock”) received an equal amount of empty pcDNA3.1 myc-His A vector] and FuGENE 6 or X-tremeGENE HP (Roche) transfection reagent according to the manufacturer's instructions. Cells were incubated for 36-48 hours before labeling in situ or harvesting for in vitro experiments.
as §1, with “DMSO or competitors were then added to the proteome mixture (50 μM) in 96-well plates and each sample was incubated for 15 min at 37° C.” left out
as §2

[3] = test system: NAEs, NATs, AA and 2-AG in Neuro2a cells; assay: Targeted LC-MS (MRM) analysis of lipids from Neuro2a cells; assay type: cell-based, mouse; settings: Neuro2a cells, 10 μM (PF-7845 1 μM)
Experimental: Discovery metabolite profiling was performed as described by Saghatelian et al., “Assignment of endogenous substrates to enzymes by global metabolite profiling,” Biochemistry 43:14332-14339 (2004) with several modifications. […] The media from the cells was removed and cells were washed with DPBS (2×5.0 mL) before adding freshly prepared media solutions containing vehicle or compound. After incubating for 6 h at 37° C. and subsequent removal of the media, the cells were harvested by scrapping in cold DPBS (3 mL) and pelleted by centrifugation in glass vials. The pellets were washed once with cold DPBS (3 mL) and then cold […] (2:1) (3 mL) was added. After vortexing, the vials were centrifuged (3,000×g, 10 min, 4° C.) and the bottom (organic) layer was transferred to a new glass vial and concentrated under a stream of N2. Samples were stored at −80° C. until the day of analysis when they were reconstituted in Mobile Phase A (100 μL, see below).
Neuro2a cells were treated and lipids extracted as described above. A mixture of internal standards [AEA-d4 (10 pmol), 2-AG-d5 (100 pmol), AA-d8 (100 pmol), PEA-d4 (100 pmol), PDA (1.0 nmol)] was added to the organic phase prior to extracting cells. NAEs, MAGs, AA and NATs were analyzed similarly to previously described methods (Saghatelian et al., 2004). The following MS parameters were used to measure the indicated metabolites by MRM (precursor ion, product ion, collision energy, polarity): NAE 20:4 (AEA) (348, 62, 12, positive), AEA-d4 (352, 66, 12, positive), NAE 16:0 (PEA) (300, 62, 12, positive), PEA-d4 (304, 62, 12, positive), NAE 18:0 (328, 62, 12, positive), NAE 18:1 (326, 62, 12, positive), NAE 18:2 (324, 62, 12, positive), 2-AG (379, 287, 8, positive), 2-AG-d5 (384, 287, 8, positive), AA (303, 259, 4, negative), AA-d8 (311, 267, 4, negative), NAT 20:4 (410, 80, 35, negative), NAT 22:1 (444, 80, 35, negative), NAT 24:1 (472, 80, 35, negative), NAT 24:0 (474, 80, 35, negative), NAT 26:0 (502, 80, 35, negative). The indicated lipids were quantified by measuring the area under the peak relative to an internal standard (AEA-d4 for AEA and NAE 18:2; PEA-d4 for PEA, NAE 18:1 and NAE 18:0; 2-AG-d5 for 2-AG; AA-d8 for AA and 20:4 NAT; PDA for all other NATs).

recombinant TMEM97 = target: T3, recombinant TMEM97 (Homo sapiens, UniProt Q5BJF2); assay: In situ gel-based competition of arachidonoyl probe labeling of recombinant TMEM97 in HEK293T cells; assay type: cell-based; settings: TMEM97-transfected HEK293T cells, probe 5 μM, competitor 25 μM
T3 construct: Full-length cDNAs encoding for the each protein of interest were subcloned into pcDNA3.1 myc-His A; expressed in transfected cells; host or cells: HEK293T
T3 sequence (Q5BJF2 whole entry, species assumed): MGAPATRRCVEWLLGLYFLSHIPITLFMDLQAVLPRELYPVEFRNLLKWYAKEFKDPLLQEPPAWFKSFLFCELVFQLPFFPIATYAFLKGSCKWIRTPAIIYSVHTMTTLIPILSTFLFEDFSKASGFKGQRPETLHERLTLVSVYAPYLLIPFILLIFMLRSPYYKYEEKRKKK
Experimental: Proteomes were diluted to 1.0 mg/mL (total protein concentration) and 50 μL of each proteome was transferred to separate wells in a 96-well plate.
as §3

[4] = test system: AEA-DA lipid probe targets in Neuro2a cells; settings: Neuro2a cells, AEA-DA 5 μM

SMILES: CCCCC/C=C\C/C=C\C/C=C\C/C=C\CCCC(=O)OC(CO)CO [2-AG]
- suppression of the NUCB1-FluoPol signal (blockade of Fl-AEA binding) (human NUCB1 [1]): Concentration-dependent suppression
- competition of AEA-DA probe labeling of recombinant NUCB1 by lipids (human NUCB1 [2]): blocked

SMILES: CCCCC/C=C\C/C=C\C/C=C\C/C=C\CCCC(=O)O [AA, Arachidonic acid]
- competition of AEA-DA probe labeling of recombinant NENF (NENF): competitively blocked
- suppression of the NUCB1-FluoPol signal (blockade of Fl-AEA binding) (human NUCB1 [1]): Concentration-dependent suppression
- competition of AEA-DA probe labeling of recombinant NUCB1 by lipids (human NUCB1 [2]): blocked

SMILES: CCCCC/C=C\C/C=C\C/C=C\C/C=C\CCCC(=O)NCCCCCNC(=O)c1ccc(-c2c3ccc(=[N+](C)C)cc-3oc3cc(N(C)C)ccc23)c(C(=O)[O-])c1 [Fl-AEA, 2-(6-(Dimethylamino)-3-(dimethylmninio)-3H-xanthen-9-yl)-5-((5-((5Z,8Z,11Z,14Z)-icosa-5,8,11,14-tetraenamido)pentyl)carbamoyl)benzoate]
- binding to recombinant, purified human NUCB1 (FluoPol signal) (human NUCB1 [1]; Fl-AEA 0.5 μM, NUCB1 1.0 μM): substantial increase in fluorescence polarization (FluoPol) signal

SMILES: O=C(Nc1cccnn1)N1CCC(=Cc2cccc(Oc3ccc(C(F)(F)F)cn3)c2)CC1 [PF-7845, reference compound]
- 2-AG levels [3]: greater degree
- cellular concentrations of NAEs and NATs ([3]; 6 h): elevated

SMILES: CCCCC[C@H](O)/C=C/[C@H]1C(=O)C[C@H](O)[C@@H]1C/C=C\CCCC(=O)NCCO [PGD2-EA]
- suppression of the NUCB1-FluoPol signal (blockade of Fl-AEA binding) (human NUCB1 [1]): minimal blockade

SMILES: CCCCC[C@H](O)/C=C/[C@@H]1[C@@H](C/C=C\CCCC(=O)NCCO)[C@@H](O)C[C@H]1O [PGF2α-EA]
- suppression of the NUCB1-FluoPol signal (blockade of Fl-AEA binding) (human NUCB1 [1]): minimal blockade

SMILES: CC(C)CCC[C@@H](C)[C@H]1CC[C@H]2[C@@H]3CC=C4C[C@@H](O)CC[C@]4(C)[C@H]3CC[C@]12C [cholesterol]
- suppression of the NUCB1-FluoPol signal (blockade of Fl-AEA binding) (human NUCB1 [1]): minimal blockade

SMILES: COc1cc2c(cc1OC)CN(CCc1ccc(NC(=O)c3cccc4c(=O)c5cccc(OC)c5[nH]c34)cc1)CC2 [elacridar, reference compound]
- competition of arachidonoyl probe labeling of recombinant TMEM97 (recombinant TMEM97): competition was observed
- concentration blocking lipid probe labeling of FECH, ABCB1B and TMEM97 (as low as) [4]: 0.5 µM

SMILES: C=Cc1c(C)c2cc3[n-]c(cc4nc(cc5nc(cc1[n-]2)C(C)=C5CCC(=O)O)C(CCC(=O)O)=C4C)c(C)c3C=C.[Cl-].[Fe+3] [hemin]
- IC50 (NENF; read-out: IC50, inhibition of AEA-DA labeling of NENF): 2 µM
- competition of AEA-DA probe labeling of recombinant NENF (NENF): inhibited in a concentration-dependent manner

SMILES: CCCCC[C@H](O)/C=C/[C@H]1C=CC(=O)[C@@H]1CCCCCCC(=O)O [prostaglandin A1]
- suppression of the NUCB1-FluoPol signal (blockade of Fl-AEA binding) (human NUCB1 [1]): minimal blockade

SMILES: CCCCC[C@H](O)/C=C/C1=C(CCCCCCC(=O)O)C(=O)CC1 [prostaglandin B1]
- suppression of the NUCB1-FluoPol signal (blockade of Fl-AEA binding) (human NUCB1 [1]): minimal blockade

SMILES: CCCCC[C@H](O)/C=C/[C@H]1C(=O)C[C@H](O)[C@@H]1C/C=C\CCCC(=O)O [prostaglandin D2]
- suppression of the NUCB1-FluoPol signal (blockade of Fl-AEA binding) (human NUCB1 [1]): minimal blockade

SMILES: CCCCCCCCCCCCC/C=C/[C@@H](O)[C@@H](N)CO [sphingosine]
- suppression of the NUCB1-FluoPol signal (blockade of Fl-AEA binding) (human NUCB1 [1]): minimal blockade
